Data: PubChem BioAssay AID248 (DTP/NCI, 2004)
Several values for one entry are separate records, joined by “and”; a condition that tells them apart may be missing. Identical values can stand only once. Toxic doses and inconclusive results are not listed. Cut-off read from the data, not from the text of the source: active = T/C of 150% or more; inactive = T/C below 125%.

Test system: L1210 leukemia ip in BDF1 mice, survival T/C
Assay: NCI In Vivo Anticancer Drug Screen. Data for tumor model L1210 Leukemia (intraperitoneal) in B6D2F1 (BDF1) mice
Conditions: endpoint: mean survival time, higher = longer survival
Procedure, shortened: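 Value reflects the ratio of survival in compound-treated mice to survival in vehicle-treated controls, with both groups carrying the same transplanted tumor.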

[1] = dose: 100.0 mg/kg/injection, schedule: Q01DX009 (ip), vehicle: saline with Tween-80
[2] = dose: 100.0 mg/kg/injection, schedule: Q04DX003 (ip), vehicle: saline with Tween-80
[3] = dose: 200.0 mg/kg/injection, schedule: Q01DX009 (ip), vehicle: saline with Tween-80
[4] = dose: 200.0 mg/kg/injection, schedule: Q04DX003 (ip), vehicle: saline with Tween-80
[5] = dose: 400.0 mg/kg/injection, schedule: Q04DX003 (ip), vehicle: saline with Tween-80
[6] = dose: 75.0 mg/kg/injection, schedule: Q01DX001 (ip), vehicle: other
[7] = dose: 100.0 mg/kg/injection, schedule: Q04DX003 (ip), vehicle: Klucel (hydroxypropylcellulose) (HPC)
[8] = dose: 200.0 mg/kg/injection, schedule: Q04DX003 (ip), vehicle: Klucel (hydroxypropylcellulose) (HPC)
[9] = dose: 400.0 mg/kg/injection, schedule: Q04DX003 (ip), vehicle: Klucel (hydroxypropylcellulose) (HPC)
[10] = dose: 50.0 mg/kg/injection, schedule: Q01DX001 (ip), vehicle: carboxymethylcellulose (CMC)
[11] = dose: 200.0 mg/kg/injection, schedule: Q01DX001 (ip), vehicle: carboxymethylcellulose (CMC)
[12] = dose: 400.0 mg/kg/injection, schedule: Q01DX001 (ip), vehicle: carboxymethylcellulose (CMC)
[13] = dose: 100.0 mg/kg/injection, schedule: Q01DX009 (ip), vehicle: Klucel (hydroxypropylcellulose) (HPC)
[14] = dose: 200.0 mg/kg/injection, schedule: Q01DX009 (ip), vehicle: Klucel (hydroxypropylcellulose) (HPC)
[15] = dose: 400.0 mg/kg/injection, schedule: Q01DX009 (ip), vehicle: Klucel (hydroxypropylcellulose) (HPC)

Measured: T/C

CN(C)CCCNc1cc2c3ccccc3ncc2c2ccccc12
inactive: [1] 98 % of control | [2] 108 % of control | [3] 93 % of control | [4] 113 % of control | dose: 400.0 mg/kg/injection, schedule: Q01DX009 (ip), vehicle: saline with Tween-80 108 % of control | [5] 101 % of control

Cc1cc(Cl)c2ccccc2n1
inactive: dose: 37.5 mg/kg/injection, schedule: Q04DX003 (ip), vehicle: saline 103 % of control | [6] 108 % of control | dose: 75.0 mg/kg/injection, schedule: Q04DX003 (ip), vehicle: saline 95 % of control

NC1CC(=O)NC1=O (configuration not stated)
inactive: dose: 100.0 mg/kg/injection, schedule: Q04DX002 (ip), vehicle: saline 93 % of control | dose: 200.0 mg/kg/injection, schedule: Q04DX002 (ip), vehicle: saline 100 % of control | dose: 400.0 mg/kg/injection, schedule: Q04DX002 (ip), vehicle: saline 100 % of control

CCNCc1cc(Nc2cc(C)nc(/N=C(\N)Nc3ccc(Cl)c(Cl)c3)n2)ccc1OC
inactive: dose: 3.12 mg/kg/injection, schedule: Q01DX009 (ip), vehicle: Klucel (hydroxypropylcellulose) (HPC) 94 % of control | dose: 6.25 mg/kg/injection, schedule: Q01DX009 (ip), vehicle: Klucel (hydroxypropylcellulose) (HPC) 103 % of control | dose: 12.5 mg/kg/injection, schedule: Q01DX009 (ip), vehicle: Klucel (hydroxypropylcellulose) (HPC) 97 % of control | dose: 25.0 mg/kg/injection, schedule: Q04DX003 (ip), vehicle: Klucel (hydroxypropylcellulose) (HPC) 101 % of control | dose: 50.0 mg/kg/injection, schedule: Q04DX003 (ip), vehicle: Klucel (hydroxypropylcellulose) (HPC) 111 % of control | [6] 97 % of control | [7] 95 % of control

C1CCC2C[N-]CCC2C1.C1CCC2C[N-]CCC2C1.C1CCC2C[N-]CCC2C1.C1CCC2C[N-]CCC2C1.[Cl][Rh][Cl] (configuration not stated)
inactive: dose: 0.5 mg/kg/injection, schedule: Q01DX009 (ip), vehicle: Klucel (hydroxypropylcellulose) (HPC) 101 % of control | dose: 1.0 mg/kg/injection, schedule: Q01DX009 (ip), vehicle: Klucel (hydroxypropylcellulose) (HPC) 108 % of control | dose: 2.0 mg/kg/injection, schedule: Q01DX009 (ip), vehicle: Klucel (hydroxypropylcellulose) (HPC) 110 % of control | dose: 2.0 mg/kg/injection, schedule: Q01DX009 (ip), vehicle: citric acid 92 % of control | dose: 3.12 mg/kg/injection, schedule: Q01DX009 (ip), vehicle: saline with Tween-80 105 % of control | dose: 3.12 mg/kg/injection, schedule: Q04DX003 (ip), vehicle: saline with Tween-80 105 % of control | dose: 4.0 mg/kg/injection, schedule: Q01DX009 (ip), vehicle: Klucel (hydroxypropylcellulose) (HPC) 103 % of control | dose: 6.25 mg/kg/injection, schedule: Q04DX003 (ip), vehicle: saline with Tween-80 108 % of control

COC(=O)C1=C(C(=O)OC)C2OC1C(COC(C)=O)=C2COC(C)=O
inactive: dose: 100.0 mg/kg/injection, schedule: Q04DX003 (ip), vehicle: saline 93 % of control

O=C(NC(=S)N1CC=CCC1)c1ccccc1
inactive: dose: 100.0 mg/kg/injection, schedule: Q04DX002 (ip), vehicle: gum acacia 97 % of control | dose: 200.0 mg/kg/injection, schedule: Q04DX002 (ip), vehicle: gum acacia 100 % of control | dose: 400.0 mg/kg/injection, schedule: Q04DX002 (ip), vehicle: gum acacia 93 % of control

CN(C)C(=S)Oc1ccccc1[N+](=O)[O-]
inactive: [2] 100 % of control | [4] 103 % of control | [5] 114 % of control

CCOC(=O)c1cc(C=O)nc2c(Cl)cc(Cl)cc12
inactive: [1] 89 % of control | [3] 92 % of control

CCOc1ccccc1C(N)=O
inactive: dose: 100.0 mg/kg/injection, schedule: Q01DX009 (ip), vehicle: saline 96 % of control | dose: 100.0 mg/kg/injection, schedule: Q04DX003 (ip), vehicle: other 96 % of control | dose: 200.0 mg/kg/injection, schedule: Q01DX009 (ip), vehicle: saline 107 % of control | dose: 200.0 mg/kg/injection, schedule: Q04DX003 (ip), vehicle: other 104 % of control | dose: 400.0 mg/kg/injection, schedule: Q01DX009 (ip), vehicle: saline 102 % of control | dose: 400.0 mg/kg/injection, schedule: Q04DX003 (ip), vehicle: other 105 % of control

O=C1c2ccccc2CCC12OC2c1ccc(F)cc1 (configuration not stated)
inactive: [7] 97 % of control | [8] 97 % of control | [9] 103 % of control

CN=C(NC)NN
inactive: dose: 30.0 mg/kg/injection, schedule: Q01DX Z (ip), vehicle: methylcellulose (MC) 100 % of control | dose: 60.0 mg/kg/injection, schedule: Q01DX Z (ip), vehicle: methylcellulose (MC) 103 % of control | dose: 100.0 mg/kg/injection, schedule: Q04DX002 (ip), vehicle: saline with Tween-80 95 % of control | dose: 125.0 mg/kg/injection, schedule: Q01DX Z (oral), vehicle: methylcellulose (MC) 101 % of control | dose: 200.0 mg/kg/injection, schedule: Q04DX002 (ip), vehicle: saline with Tween-80 95 % of control | dose: 240.0 mg/kg/injection, schedule: Q01DX Z (ip), vehicle: methylcellulose (MC) 108 % of control | dose: 250.0 mg/kg/injection, schedule: Q01DX Z (oral), vehicle: methylcellulose (MC) 95 % of control | dose: 270.0 mg/kg/injection, schedule: Q01DX Z (ip), vehicle: saline 105 % of control | dose: 375.0 mg/kg/injection, schedule: Q01DX Z (ip), vehicle: methylcellulose (MC) 110 % of control | dose: 400.0 mg/kg/injection, schedule: Q04DX002 (ip), vehicle: saline with Tween-80 100 % of control | dose: 405.0 mg/kg/injection, schedule: Q01DX Z (ip), vehicle: saline 97 % of control | dose: 480.0 mg/kg/injection, schedule: Q01DX Z (ip), vehicle: methylcellulose (MC) 102 % of control | dose: 609.0 mg/kg/injection, schedule: Q01DX Z (ip), vehicle: saline 103 % of control

Nc1ccc([N+](=O)[O-])c2ccccc12
inactive: [10] 87 % of control | dose: 100.0 mg/kg/injection, schedule: Q01DX001 (ip), vehicle: carboxymethylcellulose (CMC) 93 % of control | [11] 98 % of control | [12] 87 % of control

O=C(Nc1ccccc1F)OCCOc1ccccc1Cl
inactive: [13] 115 % of control | [14] 112 % of control | [15] 124 % of control

CCOC(=O)C(=Cc1cccc2ccccc12)C(=O)OCC
inactive: [13] 98 % of control | [7] 101 % of control | [14] 105 % of control | [8] 98 % of control | [15] 93 % of control | [9] 92 % of control

O=C(CCCl)Nc1cccc2c1C(=O)c1c(c(O)c3ccccc3c1O)C2=O
inactive: [2] 90 % of control | [4] 92 % of control | [5] 91 % of control

CC(=O)OCCC(C)Nc1ccnc2cc(Cl)ccc12 (configuration not stated)
inactive: dose: 20.0 mg/kg/injection, schedule: Q04DX003 (ip), vehicle: saline with Tween-80 92 % of control | dose: 40.0 mg/kg/injection, schedule: Q04DX003 (ip), vehicle: saline with Tween-80 87 % of control

CC1(OC(=O)c2ccc([N+](=O)[O-])cc2)CC2CC1c1ccccc12 (configuration not stated)
inactive: [10] 90 % of control | [11] 111 % of control | [12] 90 % of control

OC1C=NC(N2CCN(c3ccccc3)CC2)=Cc2ccccc21 (configuration not stated)
inactive: [2] 97 % of control | [4] 95 % of control | [5] 92 % of control

C(=C\CN(Cc1ccccc1)Cc1ccccc1)/CN(Cc1ccccc1)Cc1ccccc1
inactive: [7] 90 % of control | [8] 87 % of control | [9] 87 % of control

Clc1ccc(CNc2ccccn2)s1
inactive: dose: 150.0 mg/kg/injection, schedule: Q01DX001 (ip), vehicle: saline 88 % of control

CCCCOC(=O)C1=C(C(=O)OCCCC)CCCC1
inactive: [1] 98 % of control | [3] 104 % of control

O=C(Cc1ccc(N(CCCl)CCCl)cc1)NC1CCCC1
inactive: [7] 117 % of control | [8] 120 % of control | dose: 266.0 mg/kg/injection, schedule: Q04DX003 (ip), vehicle: Klucel (hydroxypropylcellulose) (HPC) 107 % of control and 112 % of control | [9] 102 % of control and 119 % of control
